This is an account of results in US10294246B2, “Substituted boronic acids and boronate esters as immunoproteasome inhibitors” (MERCK PATENT GMBH, priority 2014, dated 2019).

Experiment [1] has as its target human constitutive proteasome (Beta5) (Homo sapiens (Human), UniProt P28074). Kind of experiment: Determination of Beta5 activity (fluorescence intensity assay, Suc-LLVY-AMC). Format: biochemical. The following applies: purified human constitutive proteasome 1.25 nM, Suc-LLVY-AMC 40 μM. Summed up:
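Purified constitutive proteasome (1.25 nM) was preincubated with compounds 20 min at 25 °C in 50 mM Tris pH 7.4, 0.03% SDS, 1 mM EDTA, 1% DMSO. Suc-LLVY-AMC (40 μM) was then added for 60 min at 37 °C. AMC fluorescence was read at ex 350/em 450 nm.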

Experiment [2] deals with human immunoproteasome (LMP7) (Homo sapiens (Human), UniProt P28062). Kind of experiment: Determination of LMP7 activity (fluorescence intensity assay, Suc-LLVY-AMC). Conditions: for Selectivity LMP7 vs Beta5: LMP7 versus Beta5; for IC50: purified human immunoproteasome 0.25 nM, Suc-LLVY-AMC 40 μM. Format: biochemical. In short, it runs like this:
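0.25 nM purified human immunoproteasome preincubated 20 min at 25 °C with serially diluted compounds in 50 mM Tris pH 7.4, 0.03% SDS, 1 mM EDTA, 1% DMSO. Reaction started with 40 μM Suc-LLVY-AMC, run 60 min at 37 °C. Fluorescence read at ex 350/em 450 nm.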

Bounds are passed on as bounds.

Usually IC50 stands for the concentration at which inhibition is half-maximal. For `O=C(Cc1ncccn1)N[C@@H](Cc1coc2ccccc12)B(O)O` [Compound No. 20, [(1R)-2-(benzofuran-3-yl)-1-[(2-pyrimidin-2-ylacetyl)amino]ethyl]-boronic acid], the IC50 in experiment [1] was in the range of 50 to 500 nM. Further, in experiment [2], the “Selectivity LMP7 vs Beta5” value is “++ (10 ≤ Selectivity < 50)” and the IC50 was < 50 nM.
The corresponding values for `COc1ccc(CC(=O)N[C@@H](Cc2coc3c(C)ccc(C)c23)B(O)O)cc1` [Compound No. 129, [(1R)-2-(4,7-dimethylbenzofuran-3-yl)-1-[[2-(4-methoxyphenyl)-acetyl]amino]ethyl]boronic acid] are 500 to 5000 nM, “+++++ (Selectivity ≥ 100)” and < 50 nM.
Taken in the same sequence, the figures for `CCO[C@@H](C(=O)N[C@@H](CC1COc2ccccc21)B(O)O)c1ccccc1` (stereo partly drawn) [Compound No. 111, [(1R)-2-(2,3-dihydrobenzofuran-3-yl)-1-[[(2R)-2-ethoxy-2-phenyl-acetyl]amino]ethyl]boronic acid] were > 5000 nM, “+++++ (Selectivity ≥ 100)” and < 50 nM.
Taken in the same sequence, the figures for `Cc1ccc(C[C@H](NC(=O)Cc2ccccc2)B(O)O)cc1` [Compound No. 14, [(1R)-1-[(2-phenylacetyl)amino]-2-(p-tolyl)ethyl]boronic acid] were 500 to 5000 nM, “+++ (50 ≤ Selectivity < 70)” and 50 to 500 nM.
`CC(=O)Nc1ccc(CC(=O)N[C@@H](Cc2ccc(C)cc2C)B(O)O)cc1` [Compound No. 38] returned an IC50 in experiment [1] of 500 to 5000 nM. Also, in experiment [2], the “Selectivity LMP7 vs Beta5” value was “++++ (70 ≤ Selectivity < 100)” and the IC50 was < 50 nM.
In experiment [1], `CC(=O)Nc1ccc(CC(=O)N[C@@H](Cc2coc3ccccc23)B(O)O)cc1` [Compound No. 26, [(1R)-1-[[2-(4-acetamidophenyl)acetyl]amino]-2-(benzofuran-3-yl)ethyl]boronic acid] gave a concentration for half-maximal inhibition (IC50) of 50 to 500 nM. Besides, in experiment [2], the “Selectivity LMP7 vs Beta5” value was “+++++ (Selectivity ≥ 100)”.
Regarding `C[C@H](C(=O)N[C@@H](C[C@@H]1COc2ccccc21)B(O)O)c1ccccc1C(=O)N(C)C` [Compound No. 107, [(1R)-2-[(3S)-2,3-dihydrobenzofuran-3-yl]-1-[[(2S)-2-[2-(dimethylcarbamoyl)phenyl]propanoyl]amino]ethyl]boronic acid], the IC50 in experiment [1] was > 5000 nM. Moreover, in experiment [2], the “Selectivity LMP7 vs Beta5” value is recorded as “++ (10 ≤ Selectivity < 50)” and the half-inhibitory concentration (IC50) lay within 500 to 5000 nM.
Taken in the same sequence, the figures for `CC(C)(O)c1ccc(CC(=O)N[C@@H](Cc2coc3ccccc23)B(O)O)cc1` [Compound No. 91, [(1R)-2-(benzofuran-3-yl)-1-[[2-[4-(1-hydroxy-1-methyl-ethyl)phenyl]acetyl]amino]ethyl]boronic acid] were 50 to 500 nM, “+++++ (Selectivity ≥ 100)” and < 50 nM.
Taken in the same sequence, the figures for `COc1ccc(CC(=O)N[C@@H](Cc2coc3ccccc23)B(O)O)cc1` [Compound No. 10, [(1R)-2-(benzofuran-3-yl)-1-[[2-(4-methoxyphenyl)acetyl]amino]ethyl]-boronic acid] were 50 to 500 nM, “++++ (70 ≤ Selectivity < 100)” and < 50 nM.
Taken in the same sequence, the figures for `N#Cc1ccccc1CC(=O)N[C@@H](C[C@@H]1COc2c(Cl)cccc21)B(O)O` [Compound No. 134, [(1R)-2-[(3S)-7-chloro-2,3-dihydrobenzofuran-3-yl]-1-[[2-(2-cyanophenyl)acetyl]amino]ethyl]boronic acid] were 500 to 5000 nM, “+++++ (Selectivity ≥ 100)” and < 50 nM.
In experiment [1], `CC(=O)Nc1ccccc1CC(=O)N[C@@H](Cc1coc2ccccc12)B(O)O` [Compound No. 103, [(1R)-1-[[2-(2-acetamidophenyl)acetyl]amino]-2-(benzofuran-3-yl)ethyl]boronic acid] registered an IC50 of 500 to 5000 nM. For the same compound, the “Selectivity LMP7 vs Beta5” value in experiment [2] was “++++ (70 ≤ Selectivity < 100)”.
`O=C(N[C@H](Cc1coc2ccccc12)B(O)O)[C@@H](CO)c1ccccc1` [Compound No. 62, [(1S)-2-(benzofuran-3-yl)-1-[[(2R)-3-hydroxy-2-phenyl-propanoyl]-amino]ethyl]boronic acid]: the half-maximal inhibitory concentration (IC50) in experiment [1] is 500 to 5000 nM; in experiment [2] it was < 50 nM. For the same compound, the “Selectivity LMP7 vs Beta5” value in experiment [2] was “+++++ (Selectivity ≥ 100)”.
The corresponding values for `O=C(Cc1ccccc1OC1CCOCC1)N[C@@H](Cc1coc2ccccc12)B(O)O` [Compound No. 54, [(1R)-2-(benzofuran-3-yl)-1-[[2-(2-tetrahydropyran-4-yloxyphenyl)-acetyl]amino]ethyl]boronic acid] are 50 to 500 nM, < 50 nM and “+++++ (Selectivity ≥ 100)”.
Turning to `Cc1ccc2c(C[C@H](NC(=O)Cc3ccccc3)B(O)O)coc2c1C` [Compound No. 94, [(1R)-2-(6,7-dimethylbenzofuran-3-yl)-1-[(2-phenylacetyl)amino]ethyl]boronic acid], the IC50 in experiment [1] was 500 to 5000 nM. For the same compound, in experiment [2], the “Selectivity LMP7 vs Beta5” value was “+++++ (Selectivity ≥ 100)” and the half-maximal inhibitory concentration (IC50) was < 50 nM.
In the case of `Cc1cccc2c(C[C@H](NC(=O)[C@@H](CO)c3ccccc3)B(O)O)coc12` [Compound No. 83, [(1R)-1-[[(2R)-3-hydroxy-2-phenyl-propanoyl]amino]-2-(7-methylbenzofuran-3-yl)ethyl]boronic acid], the concentration for half-maximal inhibition (IC50) in experiment [1] is 500 to 5000 nM; in experiment [2], < 50 nM. Further, in experiment [2], the “Selectivity LMP7 vs Beta5” value was “+++++ (Selectivity ≥ 100)”.
Taken in the same sequence, the figures for `COCc1ccccc1CC(=O)N[C@@H](Cc1coc2ccccc12)B(O)O` [Compound No. 48, [(1R)-2-(benzofuran-3-yl)-1-[[2-[2-(methoxymethyl)phenyl]acetyl]-amino]ethyl]boronic acid] were 500 to 5000 nM, < 50 nM and “+++++ (Selectivity ≥ 100)”.
Taken in the same sequence, the figures for `COc1ccc(OC)c(CC(=O)N[C@@H](Cc2coc3c(C)cccc23)B(O)O)c1` [Compound No. 78, [(1R)-1-[[2-(2,5-dimethoxyphenyl)acetyl]amino]-2-(7-methylbenzofuran-3-yl)ethyl]boronic acid] were 500 to 5000 nM, < 50 nM and “+++++ (Selectivity ≥ 100)”.
Compound `O=C(Cc1ccccc1OCCCO)N[C@@H](Cc1coc2ccccc12)B(O)O` [Compound No. 55, [(1R)-2-(benzofuran-3-yl)-1-[[2-[2-(3-hydroxypropoxy)phenyl]acetyl]-amino]ethyl]boronic acid] returned a half-maximal inhibitory concentration (IC50) in experiment [1] of 500 to 5000 nM. Also, in experiment [2], the “Selectivity LMP7 vs Beta5” value is listed as “++++ (70 ≤ Selectivity < 100)” and the 50% inhibitory concentration (IC50) was < 50 nM.
Taken in the same sequence, the figures for `N#Cc1ccc(CC(=O)N[C@@H](Cc2coc3ccccc23)B(O)O)cc1` [Compound No. 9, [(1R)-2-(benzofuran-3-yl)-1-[[2-(4-cyanophenyl)acetyl]amino]ethyl]-boronic acid] were 50 to 500 nM, “++++ (70 ≤ Selectivity < 100)” and < 50 nM.
The corresponding values for `O=C(CCOc1ccccc1)N[C@@H](C[C@@H]1COc2ccccc21)B(O)O` [Compound No. 136, [(1R)-2-[(3S)-2,3-dihydrobenzofuran-3-yl]-1-(3-phenoxypropanoylamino)ethyl]boronic acid] are 50 to 500 nM, “+++++ (Selectivity ≥ 100)” and < 50 nM.
Taken in the same sequence, the figures for `C[C@@H](C(=O)N[C@@H](Cc1coc2ccccc12)B(O)O)c1ccccc1` [Compound No. 45, [(1R)-2-(benzofuran-3-yl)-1-[[(2R)-2-phenylpropanoyl]amino]ethyl]-boronic acid] were 500 to 5000 nM, “+++ (50 ≤ Selectivity < 70)” and < 50 nM.
`O=C(Cc1ncccc1C(=O)N1CCOCC1)N[C@@H](Cc1coc2ccccc12)B(O)O` [Compound No. 119, [(1R)-2-(benzofuran-3-yl)-1-[[2-[3-(morpholine-4-carbonyl)-2-pyridyl]acetyl]amino]ethyl]boronic acid] returned a concentration for half-maximal inhibition (IC50) in experiment [1] of 500 to 5000 nM. In experiment [2], the “Selectivity LMP7 vs Beta5” value is recorded as “+++++ (Selectivity ≥ 100)” and the half-inhibitory concentration (IC50) is < 50 nM.
The corresponding values for `COc1cccc(OC)c1CC(=O)N[C@@H](Cc1ccc(C)cc1C)B(O)O` [Compound No. 42, [(1R)-1-[[2-(2,6-dimethoxyphenyl)acetyl]amino]-2-(2,4-dimethylphenyl)ethyl]boronic acid] are > 5000 nM, “++ (10 ≤ Selectivity < 50)” and 50 to 500 nM.
For the compound `O=C(COc1ccccc1)N[C@@H](Cc1ccccc1)B(O)O` [Compound No. 3, [(1R)-1-[(2-phenoxyacetyl)amino]-2-phenyl-ethyl]boronic acid], in experiment [1], the IC50 lay within 50 to 500 nM. In experiment [2], the “Selectivity LMP7 vs Beta5” value is given as “++ (10 ≤ Selectivity < 50)” and the IC50 is < 50 nM.
`COc1cccc(CC(=O)N[C@@H](Cc2coc3ccccc23)B(O)O)c1` [Compound No. 15, [(1R)-2-(benzofuran-3-yl)-1-[[2-(3-methoxyphenyl)acetyl]amino]ethyl]-boronic acid] showed an IC50 in experiment [1] of 50 to 500 nM. In experiment [2], the “Selectivity LMP7 vs Beta5” value was “++++ (70 ≤ Selectivity < 100)” and the half-maximal inhibitory concentration (IC50) is < 50 nM.
